Data as given in ChEMBL document CHEMBL1134121, “Biphenyls as surrogates of the steroidal backbone. Part 2: discovery of a novel family of non-steroidal 5-alpha-reductase inhibitors” (Bioorg Med Chem Lett, 2001).

Biological target: T1, 3-oxo-5-alpha-steroid 4-dehydrogenase 2 (Homo sapiens) (UniProt P31213)
T1 sequence (whole entry): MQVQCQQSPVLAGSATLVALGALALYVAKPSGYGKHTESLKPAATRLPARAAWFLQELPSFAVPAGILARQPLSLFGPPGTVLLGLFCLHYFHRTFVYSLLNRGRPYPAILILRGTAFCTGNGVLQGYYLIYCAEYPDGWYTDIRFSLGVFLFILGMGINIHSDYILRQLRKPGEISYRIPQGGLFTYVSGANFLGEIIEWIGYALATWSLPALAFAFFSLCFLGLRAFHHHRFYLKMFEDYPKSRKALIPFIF
Assay: Compound was tested for the inhibition of Steroid 5-alpha-reductase type 2 of human prostates at a concentration of 10e-6 M
Format: tissue-based
Settings: Prostate gland

| SMILES | inhibition [%] |
| --- | --- |
| CC(C(=O)N(C(C)C)C(C)C)c1ccc(-c2ccc(C(=O)O)cc2)cc1 (stereo not drawn) | 26.9 |
| CC(C)N(C(=O)c1ccc(-c2ccc(C(=O)O)cc2)cc1)C(C)C | 32.5 |
| CC(C)N(C(=O)c1cc(I)c(-c2ccc(C(=O)O)cc2)c([N+](=O)[O-])c1)C(C)C | 0 |
| CC(C)N(C(=O)COc1ccc(-c2ccc(C(=O)O)cc2)cc1)C(C)C | 57.5 |
| CC(C)N(C(=O)c1cc(Br)c(-c2ccc(C(=O)O)cc2)c(Br)c1)C(C)C | 0 |

More lines, now with the values ahead:

| inhibition [%] | SMILES |
| --- | --- |
| 0 | CC(C)N(C(=O)c1cc([N+](=O)[O-])c(-c2ccc(C(=O)O)cc2)c([N+](=O)[O-])c1)C(C)C |
| 0 | CC(C)N(C(=O)c1cc(N)c(-c2ccc(C(=O)O)cc2)c(N)c1)C(C)C |
| 0 | CC(C)N(C(=O)c1cc(I)c(-c2ccc(C(=O)O)cc2)c(I)c1)C(C)C |
| 37 | CC(C)N(C(=O)Cc1ccc(-c2ccc(C(=O)O)cc2)cc1)C(C)C |

Biological target: T2, 3-oxo-5-alpha-steroid 4-dehydrogenase 2 (Homo sapiens, UniProt P31213)
T2 sequence (P31213 whole entry): T1 sequence (whole entry)
Assay: Compound was tested for the inhibition of Steroid 5-alpha-reductase type 2 of human prostates
Format: tissue-based, Prostate gland
Settings: not given

| SMILES | IC50 [µM] |
| --- | --- |
| Cc1cc(C(=O)O)cc(C)c1-c1ccc(OCC(=O)N(C(C)C)C(C)C)cc1 | > 10 |
| CC(C)c1cc(-c2ccc(C(=O)O)cc2)cc(C(C)C)c1OCC(=O)N(C(C)C)C(C)C | 0.071 |
| CC(C)N(C(=O)COc1ccc(-c2ccc(C(=O)O)cc2)cc1)C(C)C | 0.83 |
| CC(C)N(C(=O)COc1ccc(-c2ccc(C(=O)O)cc2C(F)(F)F)cc1)C(C)C | 0.57 |
| CC(C)N(C(=O)COc1ccc(-c2ccc(C(=O)O)cc2Cl)cc1)C(C)C | 0.87 |
| CC(C)N(C(=O)COc1cc(Cl)c(-c2ccc(C(=O)O)cc2)c(Cl)c1)C(C)C | > 10 |

Results, then the compound that gave them:

| IC50 [µM] | SMILES |
| --- | --- |
| > 10 | CC(C)N(C(=O)COc1ccc(-c2c(F)cc(C(=O)O)cc2F)cc1)C(C)C |
| > 10 | CC(C)N(C(=O)COc1ccc(-c2c(Cl)cc(C(=O)O)cc2Cl)cc1)C(C)C |

Biological target: T2, 3-oxo-5-alpha-steroid 4-dehydrogenase 2
Assay: Compound was tested for the inhibition of type 2 5-alpha-reductase of human prostates
Format: tissue-based, Prostate gland
Settings: not given

| SMILES | IC50 [µM] |
| --- | --- |
| CCc1cc(-c2ccc(C(=O)O)cc2)ccc1OCC(=O)N(C(C)C)C(C)C | 0.35 |
| CC(C)N(C(=O)[C@H]1CCC2C3CC[C@H]4NC(=O)CC[C@]4(C)C3CC[C@@]21C)C(C)C (stereo partly drawn) | 0.041 |
| CC(C)N(C(=O)[C@H]1CC[C@H]2[C@@H]3CCc4cc(C(=O)O)ccc4[C@H]3CC[C@]12C)C(C)C | 0.0021 |
| O=C(COc1c(F)cc(-c2ccc(C(=O)O)cc2)cc1[N+](=O)[O-])NC(c1ccccc1)(c1ccccc1)c1ccccc1 | 0.092 |

Other lines, results leading:

| IC50 [µM] | SMILES |
| --- | --- |
| 2 | CCc1cc(OCC(=O)N(C(C)C)C(C)C)ccc1-c1ccc(C(=O)O)cc1 |
| 0.0098 | CC(C)N(C(=O)COc1c(F)cc(-c2ccc(C(=O)O)cc2)cc1[N+](=O)[O-])C(C)C |
